Read-outs that look alike come from different tables or passages of the source.
What was measured:
[1] = test system: mixed bacterial inoculum: Pseudomonas aeruginosa (ATCC #10145), Escherichia coli (ATCC #11229), Enterobacter aerogenes (ATCC #13048), Alcaligenes faecalis …; experiment: Two-part bacterial challenge of acrylic latex paint samples with a mixed inoculum (performance ratings); assay type: cell-based; set-up: key to Performance Ratings Week 1, 1 Day / Performance Ratings Week 1, 2 Days / Performance Ratings Week 1, 8 Days / Performance Ratings Week 2, 1 Day / Performance Ratings Week 2, 2 Days / Performance Ratings Week 2, 8 Days: 0: No bacterial growth; 1: Trace of bacterial growth; 2: Light bacterial growth; 3: Moderate bacterial growth; 4: Heavy bacterial growth
Procedure: In order to quantify the antibacterial effectiveness of an antimicrobial composition of interest, samples were prepared by adding various amounts of the antimicrobial composition to identical volumes of a paint that contained no preservatives and was not contaminated by bacteria. In this case, the test sample was a white, aqueous-based, acrylic latex paint. The paint included an acrylic resin, and conventional additives such as surfactant, thickener, defoamer, and titanium oxide.
The samples of the paint were subjected to a two-part challenge procedure and the sample that provided acceptable anti-bacterial protection with the lowest concentration of the antimicrobial composition was identified. Each part of the anti-bacterial challenge consisted of a 7-day test cycle. The parts were performed consecutively over 14 test days.
Challenge testing was accomplished using a mixed bacterial inoculum as the contamination event. These bacteria are Pseudomonas aeruginosa (ATCC #10145), Escherichia coli (ATCC #11229), Enterobacter aerogenes (ATCC #13048), and Alcaligenes faecalis (ATCC #25094). To prepare the test inoculum, each type of bacteria was harvested separately in nutrient broth. Just before use in the challenge test, equal strengths of each bacterial culture were mixed to obtain an inoculum of approximately 10^8 colony forming units per milliliter (cfu/mL).
After incubation, both control blanks and samples containing preservatives of interest were inoculated with the mixed inoculum to a final of 1.0 weight %. […]
Performance ratings of 0, 1, 2, 3 or 4 for each inoculated paint sample were determined by visual inspection of the streak lines, according to the definitions set forth below in Table 25.

Escherichia coli = experiment: Minimum Inhibitory Concentration (MIC) by spiral plater / spiral gradient endpoint against Escherichia coli; assay type: cell-based; details: MIC of zinc gluconate alone for Escherichia coli (average of Trials 7, 8), used for SI
Procedure: (§1) Synergistic Index=Qa/QA+Qb/QB [Equation No. 1] • where Qa=the quantity of component A used in a binary mixture that gives the desired effect • QA=the quantity of component A which when used alone gives the desired effect • Qb=the quantity of component B used in a binary mixture that gives the desired effect • QB=the quantity of component B which when used alone gives the desired effect
(§2) Minimum Inhibitory Concentration (“MIC”) for each of the antimicrobial compositions was determined against a test microbe, which in this case was a spore suspension of the fungus Alternaria alternata, with the aid of an Autoplate 4000 spiral plater that is commercially available from Spiral Biotech, Inc., Norwood, Mass., and its accompanying spiral gradient endpoint software (hereinafter referred to as “the SGE software”). The spiral plater automates the normal serial dilution method for determining MICs. Although the details of the SGE software are held confidentially by Spiral Biotech, Inc., they are believed to consistent with the principles set forth in “Measurement of MICs of antibacterial agents by spiral gradient endpoint compared with conventional dilution method” J. H. Paton, H. A. Holt, and M. J. Bywater—Int. J. Exp. Clin. Chemother, 1990.
The spiral plater automatically applied 54.3 micro-liters of each antimicrobial composition of interest to the surface of 150 millimeter malt agar plates using an exponential application gradient. The concentration of the antimicrobial concentration was greatest near the center of the Petri plates and decreased toward the edges. […]
(§3) Inoculated spiral gradient plates were incubated for 48 hours in an incubator at 28° C. […] This growth endpoint value (expressed in mm as measured from center point of the Petri plate) was used to calculate MIC for the mixture, expressed as parts per million.
Utilizing the experimental procedure described above in Example 1, the MIC against Escherichia coli of several antibacterial compositions containing zinc gluconate, BIT, or both in water were determined.

Alternaria alternata = experiment: Minimum Inhibitory Concentration (MIC) by spiral plater / spiral gradient endpoint against Alternaria alternata; assay type: cell-based
Procedure: as §1, §2
Spore suspensions for the test microbe were prepared by growing Alternaria alternata on a Difco malt agar slant in an incubator for 1 week at 28° C. Spores were loosened by adding a small amount of buffer solution at pH 7.0 and scraping with a sterile nichrome wire loop. This process was repeated twice. The buffer solution included phosphate buffer and magnesium chloride, and was obtained commercially from Thomas Scientific Company, as Lot #023-0703.
Loosened spores were removed from the slant by aseptically pouring them into a sterile bottle containing 30 ml of the buffer solution and a volume of approximately 40 ml of 6 mm diameter borosilicate glass beads. The bead bottle was shaken to disperse the spores and adjusted to a final liquid volume of 50 ml. For use as a test inoculum, spore density was adjusted in distilled water blanks to that of a 0.5 McFarland nephelometer standard.
(§4) The spiral plater automatically applied 54.3 micro-liters of each antimicrobial composition of interest to the surface of 150 millimeter malt agar plates using an exponential application gradient. The concentration of the antimicrobial concentration was greatest near the center of the Petri plates and decreased toward the edges. Antimicrobial composition gradients were allowed to air dry at room temperature for 1 to 4 hours at 23° C. before inoculation with test microbe. Spiral gradient plates were inoculated by streaking with cotton swabs that had been soaked in test microbe spore suspension. Streaks were applied in a radial pattern, using a paper template generated by the SGE software to guide the application. Eight radii were inoculated per Petri plate. Each radius is considered as one replicated observation.
(§5) Inoculated spiral gradient plates were incubated for 48 hours in an incubator at 28° C. Visible growth of the test microbe developed along the radial streaks and ended where the concentration of the antimicrobial composition was sufficient to prevent growth. This growth endpoint value (expressed in mm as measured from center point of the Petri plate) was used to calculate MIC for the mixture, expressed as parts per million.
Utilizing the procedure described above in Example 1, Minimum Inhibitory Concentration (“MIC”) for each of the antimicrobial compositions was determined against a test microbe, which in this case was a spore suspension of the […] Alternaria alternata.

Klebsiella pneumoniae = experiment: Minimum Inhibitory Concentration (MIC) by spiral plater / spiral gradient endpoint against Klebsiella pneumoniae; assay type: cell-based; details: quantity of calcium ethylhexanoate used alone that gives the desired effect
Procedure: as §1
(§6) Minimum Inhibitory Concentration (“MIC”) for each of the antimicrobial compositions was determined against a test microbe, which in this case was a spore suspension of the fungus Alternaria alternata, with the aid of an Autoplate 4000 spiral plater that is commercially available from Spiral Biotech, Inc., Norwood, Mass., and its accompanying spiral gradient endpoint software (hereinafter referred to as “the SGE software”). […]
as §3
Utilizing the procedure described above in Example 1, Minimum Inhibitory Concentration (“MIC”) for each of the antimicrobial compositions was determined against a test microbe, which in this case was a spore suspension of the bacteria Klebsiella pneumoniae. […]

Pseudomonas aeruginosa = experiment: Minimum Inhibitory Concentration (MIC) by spiral plater / spiral gradient endpoint against Pseudomonas aeruginosa; assay type: cell-based; details: 3 1:3, 4,5 1:1, 6 3:1, 7,8 1:0
Procedure: as §1, §2, §4, §5
Utilizing the procedure described above in Example 1, Minimum Inhibitory Concentration (“MIC”) for each of the antimicrobial compositions was determined against a test microbe, which in this case was a spore suspension of the bacterium Pseudomonas aeruginosa. Several antimicrobial compositions containing calcium gluconate, BIT, or both in water were investigated, as shown below in Table 7.
Utilizing the procedure described above in Example 1, Minimum Inhibitory Concentration (“MIC”) for each of the antimicrobial compositions was determined against a test microbe, which in this case was a […] Pseudomonas aeruginosa. Several antimicrobial compositions containing calcium glycerate, BIT, or both in water were investigated, as shown below in Table 13.
Utilizing the procedure described above in Example 1, Minimum Inhibitory Concentration (“MIC”) of certain antimicrobial compositions was determined against a test microbe, which in this case was a spore suspension of the bacterium Pseudomonas aeruginosa. Several antimicrobial compositions containing zinc gluconate, BIT, or both in water were investigated, as shown below in Table 19.

Candida albicans = experiment: Minimum Inhibitory Concentration (MIC) by spiral plater / spiral gradient endpoint against Candida albicans; assay type: cell-based; details: for MIC (ppm) for Candida albicans: 3 1:3, 4,5 1:1, 6 3:1, 7,8 1:0; for QA: used for SI
Procedure: as §1, §2, §4, §5
Utilizing the procedure described above in Example, Minimum Inhibitory Concentration (“MIC”) for each of the antimicrobial compositions was determined against a test microbe, which in this case was a spore suspension of the yeast Candida albicans., as described above in Example 1. Several antimicrobial compositions containing calcium gluconate, BIT, or both in water were investigated, as shown below in Table 3
Utilizing the procedure described above in Example 1, Minimum Inhibitory Concentration (“MIC”) for each of the antimicrobial compositions was determined against a test microbe, which in this case was a spore suspension of the yeast Candida albicans. Several antimicrobial compositions containing calcium glycerate, BIT, or both in water were investigated, as shown below in Table 11.
Utilizing the procedure described above in Example 1, Minimum Inhibitory Concentration (“MIC”) for antimicrobial compositions was determined against a test microbe, which in this case was a spore suspension of the yeast Candida albicans. Several antimicrobial compositions containing calcium glycerate, BIT, or both in water were investigated, as shown below in Table 23.
Utilizing the procedure described above in Example 1, Minimum Inhibitory Concentration (“MIC”) for each of the antimicrobial compositions was determined against a test microbe, which in this case was a spore suspension of the fungus Candida Albicans.

Saccharomyces cervisiae = experiment: Minimum Inhibitory Concentration (MIC) by spiral plater / spiral gradient endpoint against Saccharomyces cervisiae; assay type: cell-based; details: aqueous calcium gluconate-BIT compositions; MassCG:MassBIT: Trials 1,2 0:1; 3 1:3; 4,5 1:1; 6 3:1; 7,8 1:0
Procedure: as §1, §6, §3
Utilizing the procedure described above in Example 1, Minimum Inhibitory Concentration (“MIC”) for each of the antimicrobial compositions was determined against a test microbe, which in this case was a spore suspension of the yeast Saccharomyces cervisiae. […]

Staphylococcus aureus = experiment: Minimum Inhibitory Concentration (MIC) by spiral plater / spiral gradient endpoint against Staphylococcus aureus; assay type: cell-based
[2] = ingredient added at 1 mass % based on total mass of paint
Procedure: Zinc chloride, zinc formate and zinc acetate were added to the acrylic paint formulation.

[3] = aqueous calcium glycerate-BIT compositions, MassCGLY:MassBIT: Trials 1,2 0:1
[4] = aqueous calcium gluconate-BIT compositions, MassCG:MassBIT: Trials 1,2 0:1
[5] = zinc glycerate (without BIT), zinc glycerate-BIT series

Compound: zinc gluconate
- Performance Ratings Week 1, 1 Day ([1]; 5000 ppm in acrylic latex paint, Week 1, 1 Day after inoculation): 4
- Performance Ratings Week 1, 2 Days ([1]; 5000 ppm in acrylic latex paint, Week 1, 2 Days after inoculation): 4
- Performance Ratings Week 1, 8 Days ([1]; 5000 ppm in acrylic latex paint, Week 1, 8 Days after inoculation): 4
- Performance Ratings Week 2, 1 Day ([1]; 5000 ppm in acrylic latex paint, Week 2, 1 Day after inoculation): 4
- Performance Ratings Week 2, 2 Days ([1]; 5000 ppm in acrylic latex paint, Week 2, 2 Days after inoculation): 4
- Performance Ratings Week 2, 8 Days ([1]; 5000 ppm in acrylic latex paint, Week 2, 8 Days after inoculation): 4
- bacterial stability test ([1]; conventional latex paint with 5000 ppm of zinc gluconate added, mixed inoculum, two 7-day cycles): fails
- QA (Escherichia coli): 565 ppm

Compound: calcium ethylhexanoate
- QA (Alternaria alternata; quantity of calcium ethylhexanoate used alone that gives the desired effect (average of two trials), Alternaria alternata): 7.5 ppm
- QA (Klebsiella pneumoniae): 7.5 ppm

Compound: calcium glycerate
- MIC (ppm) for Pseudomonas aeruginosa (Pseudomonas aeruginosa; [3]): > 1230 ppm
- MIC (ppm) for Alternaria alternata (Alternaria alternata; aqueous calcium glycerate-BIT compositions, MassCGLY:MassBIT: Trials 1,2 0:1, 3 1:3, 4,5 1:1, 6 3:1, 7,8 1:0): > 788 ppm
- MIC (ppm) for Candida albicans (Candida albicans; [3]): > 768 ppm

Compound: zinc ethylhexanoate
- QA (Alternaria alternata; MIC of zinc ethylhexanoate alone for Alternaria alternata, used for SI): >780 ppm
- amount required to prevent growth of Alternaria alternata (MIC) (Alternaria alternata; zinc ethylhexanoate (without BIT), average of two trials): > 780 ppm
- QA (Candida albicans; MIC of zinc ethylhexanoate alone for Candida albicans): >780 ppm

Compound: calcium gluconate
- MIC (ppm) for Pseudomonas aeruginosa (Pseudomonas aeruginosa; [4]): > 1127 ppm
- MIC (ppm) for Pseudomonas aeruginosa (Pseudomonas aeruginosa; aqueous zinc gluconate-BIT compositions, MassZG:MassBIT: Trials 1,2 0:1): > 2300 ppm
- MIC (ppm) for Candida albicans (Candida albicans; [4]): > 768 ppm
- MIC (ppm) for Saccharomyces cervisiae (Saccharomyces cervisiae): > 768 ppm

Compound: zinc glycerate
- QA (Alternaria alternata; MIC of zinc glycerate alone for Alternaria alternata, used for SI): >788 ppm
- MIC for Alternaria alternata (Alternaria alternata; [5]): > 768 ppm
- QA (Candida albicans; MIC of zinc glycerate alone for Candida albicans): >768 ppm
- MIC for Candida albicans (Candida albicans; metal carboxylate without BIT, zinc ethylhexanoate-BIT series (Example 16, Table 31)): > 780 ppm
- MIC for Candida albicans (Candida albicans; [5]): > 768 ppm
- QA (Staphylococcus aureus; MIC of zinc glycerate alone for Staphylococcus aureus, used for SI): >1283 ppm
- MIC for Staphylococcus aureus (Staphylococcus aureus; [5]): > 768 ppm

Compound: CC(=O)[O-].CC(=O)[O-].[Zn+2] [Zinc acetate]
- Observation (viscosity of conventional acrylic paint) [2]: Paint gelled after mixing for
- Observation (viscosity of conventional acrylic paint) ([2]; listed as zinc acetate): caused the paint to gel

Compound: [Cl-].[Cl-].[Zn+2] [Zinc chloride]
- Observation (viscosity of conventional acrylic paint) [2]: Paint gelled immediately
- Observation (viscosity of conventional acrylic paint) ([2]; listed as zinc chloride): caused the paint to gel

Compound: O=C[O-].O=C[O-].[Zn+2] [Zinc formate]
- Observation (viscosity of conventional acrylic paint) [2]: Paint gelled immediately
- Observation (viscosity of conventional acrylic paint) ([2]; listed as zinc formate): caused the paint to gel

From patent US20180332847A1, “ANTIMICROBIAL METAL CARBOXYLATE-BENZISOTHIAZOLINONE MIXTURES” (Troy Corporation, priority 2017, published 2018)
